Data from PubChem BioAssay AID2060325 (Molecular Pharmacology Branch, DTP, NCI, 2025).

Tested on: SK-OV-3 multi-cell spheroids, viability
Experiment: Anticancer human tumor SK-OV-3 cell line growth inhibition [IpAb];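 for viability, T/C: viability read after seven days of drug exposure; percent of DMSO vehicle control luminescence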
Settings: for IC50: curve of first compound; for viability, T/C: stronger effect = lower value
Summary of the method: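 Multi-cell spheroids of 60% tumour cells, 25% HUVEC and 15% MSC in ultra-low-attachment U-bottom wells, treated with agents combined with ipatasertib or abemaciclib. Half-log ranges top out near clinical Cmax, or 10 microM when Cmax is unknown.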

[1] = second compound 0.01 µM, first compound 0.0316 µM
[2] = second compound 0.01 µM, first compound 0.1 µM
[3] = second compound 0.01 µM, first compound 0.316 µM
[4] = second compound 0.01 µM, first compound 1 µM
[5] = second compound 0.01 µM, first compound 3.16 µM
[6] = second compound 0.01 µM, first compound 10 µM
[7] = second compound 0.0316 µM, first compound 0.0316 µM
[8] = second compound 0.0316 µM, first compound 0.1 µM
[9] = second compound 0.0316 µM, first compound 0.316 µM
[10] = second compound 0.0316 µM, first compound 1 µM
[11] = second compound 0.0316 µM, first compound 3.16 µM
[12] = second compound 0.0316 µM, first compound 10 µM
[13] = second compound 0.1 µM, first compound 0.0316 µM
[14] = second compound 0.1 µM, first compound 0.1 µM
[15] = second compound 0.1 µM, first compound 0.316 µM
[16] = second compound 0.1 µM, first compound 1 µM
[17] = second compound 0.1 µM, first compound 3.16 µM
[18] = second compound 0.1 µM, first compound 10 µM
[19] = second compound 0.316 µM, first compound 0.0316 µM
[20] = second compound 0.316 µM, first compound 0.1 µM
[21] = second compound 0.316 µM, first compound 0.316 µM
[22] = second compound 0.316 µM, first compound 1 µM
[23] = second compound 0.316 µM, first compound 3.16 µM
[24] = second compound 0.316 µM, first compound 10 µM
[25] = second compound 1 µM, first compound 0.0316 µM
[26] = second compound 1 µM, first compound 0.1 µM
[27] = second compound 1 µM, first compound 0.316 µM
[28] = second compound 1 µM, first compound 1 µM
[29] = second compound 1 µM, first compound 3.16 µM
[30] = second compound 1 µM, first compound 10 µM

C=CC(=O)N1CCN(c2nc(=O)n(-c3c(C)ccnc3C(C)C)c3nc(-c4c(O)cccc4F)c(F)cc23)C(C)C1 (stereo not given) + CCN1CCN(Cc2ccc(Nc3ncc(F)c(-c4cc(F)c5nc(C)n(C(C)C)c5c4)n3)nc2)CC1
IC50 (second compound 0.01 µM): > 10 µM | IC50 (second compound 0.0316 µM): > 10 µM | IC50 (second compound 0.1 µM): > 10 µM | IC50 (second compound 0.316 µM): > 10 µM | IC50 (second compound 1 µM): > 10 µM | viability, T/C [1]: 89.9% | viability, T/C [2]: 99.2% | viability, T/C [3]: 93.8% | viability, T/C [4]: 107% | viability, T/C [5]: 96.5% | viability, T/C [6]: 61.7% | viability, T/C [7]: 74.4% | viability, T/C [8]: 82.8% | viability, T/C [9]: 79% | viability, T/C [10]: 81.8% | viability, T/C [11]: 85.4% | viability, T/C [12]: 53.8% | viability, T/C [13]: 58.8% | viability, T/C [14]: 66.5% | viability, T/C [15]: 65.5% | viability, T/C [16]: 69% | viability, T/C [17]: 73.2% | viability, T/C [18]: 47.1% | viability, T/C [19]: 53.7% | viability, T/C [20]: 59% | viability, T/C [21]: 61.8% | viability, T/C [22]: 61% | viability, T/C [23]: 62.8% | viability, T/C [24]: 48% | viability, T/C [25]: 47% | viability, T/C [26]: 53.3% | viability, T/C [27]: 53.7% | viability, T/C [28]: 55.5% | viability, T/C [29]: 57.5% | viability, T/C [30]: 46.9%

Cn1ncc(Cl)c1-c1cc(C(=O)NC(CN)Cc2cccc(F)c2)sc1Cl (stereo not given) + CCN1CCN(Cc2ccc(Nc3ncc(F)c(-c4cc(F)c5nc(C)n(C(C)C)c5c4)n3)nc2)CC1
IC50 (second compound 0.01 µM): 0.066 µM | IC50 (second compound 0.0316 µM): 0.0347 µM | IC50 (second compound 0.1 µM): < 0.0316 µM | IC50 (second compound 0.316 µM): < 0.0316 µM | IC50 (second compound 1 µM): < 0.0316 µM | viability, T/C [1]: 66.5% | viability, T/C [2]: 41% | viability, T/C [3]: 22.1% | viability, T/C [4]: 14.1% | viability, T/C [5]: 6.99% | viability, T/C [6]: 0.34% | viability, T/C [7]: 52.8% | viability, T/C [8]: 30.6% | viability, T/C [9]: 22.3% | viability, T/C [10]: 13.8% | viability, T/C [11]: 7.67% | viability, T/C [12]: 0.51% | viability, T/C [13]: 42.7% | viability, T/C [14]: 26.7% | viability, T/C [15]: 18.1% | viability, T/C [16]: 12.9% | viability, T/C [17]: 7.38% | viability, T/C [18]: 0.3% | viability, T/C [19]: 43.3% | viability, T/C [20]: 29.8% | viability, T/C [21]: 20% | viability, T/C [22]: 15.1% | viability, T/C [23]: 8.84% | viability, T/C [24]: 0.17% | viability, T/C [25]: 36.3% | viability, T/C [26]: 34.7% | viability, T/C [27]: 24.4% | viability, T/C [28]: 17.8% | viability, T/C [29]: 12.2% | viability, T/C [30]: 0.39%

Cn1ncnc1[C@H]1c2n[nH]c(=O)c3cc(F)cc(c23)N[C@@H]1c1ccc(F)cc1 + CCN1CCN(Cc2ccc(Nc3ncc(F)c(-c4cc(F)c5nc(C)n(C(C)C)c5c4)n3)nc2)CC1
IC50 (second compound 0.01 µM): > 0.1 µM | IC50 (second compound 0.0316 µM): > 0.1 µM | IC50 (second compound 0.1 µM): > 0.1 µM | IC50 (second compound 0.316 µM): > 0.1 µM | IC50 (second compound 1 µM): < 0.000316 µM | viability, T/C (second compound 0.01 µM, first compound 0.000316 µM): 99.8% | viability, T/C (second compound 0.01 µM, first compound 0.001 µM): 93.9% | viability, T/C (second compound 0.01 µM, first compound 0.00316 µM): 86.6% | viability, T/C (second compound 0.01 µM, first compound 0.01 µM): 86.3% | viability, T/C [1]: 83.4% | viability, T/C [2]: 60.2% | viability, T/C (second compound 0.0316 µM, first compound 0.000316 µM): 75.2% | viability, T/C (second compound 0.0316 µM, first compound 0.001 µM): 81.6% | viability, T/C (second compound 0.0316 µM, first compound 0.00316 µM): 70.7% | viability, T/C (second compound 0.0316 µM, first compound 0.01 µM): 63.4% | viability, T/C [7]: 66.3% | viability, T/C [8]: 58.4% | viability, T/C (second compound 0.1 µM, first compound 0.000316 µM): 60.7% | viability, T/C (second compound 0.1 µM, first compound 0.001 µM): 59.5% | viability, T/C (second compound 0.1 µM, first compound 0.00316 µM): 56.4% | viability, T/C (second compound 0.1 µM, first compound 0.01 µM): 53.4% | viability, T/C [13]: 53.2% | viability, T/C [14]: 50.5% | viability, T/C (second compound 0.316 µM, first compound 0.000316 µM): 55.8% | viability, T/C (second compound 0.316 µM, first compound 0.001 µM): 56.3% | viability, T/C (second compound 0.316 µM, first compound 0.00316 µM): 52.1% | viability, T/C (second compound 0.316 µM, first compound 0.01 µM): 52% | viability, T/C [19]: 51.4% | viability, T/C [20]: 53.3% | viability, T/C (second compound 1 µM, first compound 0.000316 µM): 49.5% | viability, T/C (second compound 1 µM, first compound 0.001 µM): 45.1% | viability, T/C (second compound 1 µM, first compound 0.00316 µM): 43.2% | viability, T/C (second compound 1 µM, first compound 0.01 µM): 46.4% | viability, T/C [25]: 45.4% | viability, T/C [26]: 43%
